13 compounds from PubChem BioAssay (NCI) can be followed below.

Structures are written as SMILES.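 Each compound was tested at five concentrations against cells in 96-well plates for 48 hours. At the GI50, growth is halved. TGI: concentration producing complete growth inhibition.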

Test systems include TK-10 renal; COLO 205 colon; SK-MEL-2 melanoma; HOP-62 NSCLC; SR leukemia; MDA-MB-435; DU-145 prostate; MALME-3M melanoma; UACC-62 melanoma; LOX IMVI melanoma.
Holding throughout (test): NCI tumour cell line growth inhibition, 48 h

In the case of `CN(C)C=Nc1c2c(nc3ccccc13)CCCC2`, the TGI in the experiment with TK-10 renal, with COLO 205 colon, in the experiment on SK-MEL-2 melanoma, in the experiment with HOP-62 NSCLC, in the experiment with SR leukemia and in the experiment on MDA-MB-435 was greater than 100 µM each time. Moreover, the TGI in the experiment on DU-145 prostate, in the experiment on MALME-3M melanoma, in the experiment with UACC-62 melanoma and with LOX IMVI melanoma was greater than 100 µM each time.
On to `Cc1ccc(Cc2n[nH]c(=O)n2N2C(=O)c3ccccc3C2=O)cc1`, for which the TGI with TK-10 renal, with COLO 205 colon, with SK-MEL-2 melanoma, with HOP-62 NSCLC, in the experiment with SR leukemia and with MDA-MB-435 was greater than 100 µM throughout. For the same compound, the TGI in the experiment on DU-145 prostate, with MALME-3M melanoma, with UACC-62 melanoma and in the experiment with LOX IMVI melanoma was greater than 100 µM each time.
As to `COc1ccc(C=NCCCN=Cc2ccc(OC)cc2O)c(O)c1`, the TGI in the experiment with TK-10 renal, with SK-MEL-2 melanoma, in the experiment with HOP-62 NSCLC, in the experiment on SR leukemia, in the experiment on MDA-MB-435 and in the experiment on DU-145 prostate was greater than 100 µM each time. Further, the TGI was 71.5 µM in the experiment on MALME-3M melanoma and greater than 100 µM in the experiment on UACC-62 melanoma.
In the case of `Nc1nc(N)c2nc(CNc3ccc(C(=O)NC(CCNC(=O)c4ccccc4C(=O)O)C(=O)O)cc3)cnc2n1` (centres undefined), the TGI in the experiment with TK-10 renal, with COLO 205 colon, with SK-MEL-2 melanoma, in the experiment on HOP-62 NSCLC, in the experiment on SR leukemia and with MDA-MB-435 was greater than 100 µM in each case. Besides, the TGI with DU-145 prostate, in the experiment on MALME-3M melanoma and in the experiment on LOX IMVI melanoma was greater than 100 µM in each case. In addition, the results for the GI50 with HOP-62 NSCLC, with SR leukemia and in the experiment with LOX IMVI melanoma were 0.0635 µM, 0.00433 µM and 0.00439 µM, respectively.
With `CC1(C)OC2[C@@H](CO[C@@]3([C@H]4OC(C)(C)O[C@@H]4CO)OC(C)(C)O[C@@H]23)O1` (some centres undefined), the TGI in the experiment with TK-10 renal, in the experiment with COLO 205 colon, in the experiment on SK-MEL-2 melanoma, in the experiment on HOP-62 NSCLC, with SR leukemia and with MDA-MB-435 was greater than 100 µM each time. Moreover, the TGI in the experiment with DU-145 prostate, in the experiment with MALME-3M melanoma, in the experiment with UACC-62 melanoma and in the experiment with LOX IMVI melanoma was greater than 100 µM in each case.
Turning to `COC(=O)CN(CC1O[C@@H]2OC(C)(C)O[C@@H]2C1NC(C)=O)C(=O)OCc1ccccc1` (some centres undefined), the TGI with TK-10 renal, in the experiment with COLO 205 colon, in the experiment with SK-MEL-2 melanoma, in the experiment on HOP-62 NSCLC, with SR leukemia and with MDA-MB-435 was greater than 100 µM throughout. The TGI in the experiment with DU-145 prostate, with UACC-62 melanoma and in the experiment with LOX IMVI melanoma was greater than 100 µM in each case.
Take `COc1cc(/C=C/c2ccc(S(N)(=O)=O)cc2)cc(OC)c1`: the TGI in the experiment on TK-10 renal stood at 53.9 µM; with COLO 205 colon it was 32.4 µM; in the experiment on SK-MEL-2 melanoma, 40.3 µM; with HOP-62 NSCLC it was 62.7 µM; in the experiment on SR leukemia, 38 µM; in the experiment with MDA-MB-435 it was 40 µM. Further, the TGI in the experiment with DU-145 prostate stood at 72.8 µM; in the experiment with MALME-3M melanoma, 41.6 µM; with UACC-62 melanoma, 30.3 µM; with LOX IMVI melanoma it was 34 µM. In addition, the GI50 in the experiment with SR leukemia was 19.7 µM; in the experiment on MDA-MB-435, 18.7 µM; in the experiment with UACC-62 melanoma it was 15.4 µM; in the experiment with LOX IMVI melanoma, 18.2 µM.
`CC1(C)OC2OC(C(=O)c3ccccc3)C3OC(C)(C)OC3C2O1` (centres undefined): the TGI with TK-10 renal, with COLO 205 colon, in the experiment on SK-MEL-2 melanoma, in the experiment with HOP-62 NSCLC, in the experiment on SR leukemia and in the experiment on MDA-MB-435 was greater than 100 µM throughout. Further, the TGI in the experiment with DU-145 prostate, in the experiment with UACC-62 melanoma and with LOX IMVI melanoma was greater than 100 µM each time.
On to `COC(=O)C1Cc2c([nH]c3ccccc23)-c2[nH]c3ccccc3c2CC(NC(C)=O)C(=O)N2CCCC2C(=O)N1` (centres undefined), for which the TGI with TK-10 renal, with COLO 205 colon, in the experiment on SK-MEL-2 melanoma, with HOP-62 NSCLC, in the experiment with SR leukemia and with MDA-MB-435 was greater than 100 µM each time. The TGI with DU-145 prostate, in the experiment with UACC-62 melanoma and with LOX IMVI melanoma was greater than 100 µM each time.
Turning to `CCOC(=O)C(NC(=O)c1ccccc1)(Nc1ccc(S(=O)(=O)Nc2ccc(OC)nn2)cc1)C(F)(F)F` (centres undefined), the TGI in the experiment with TK-10 renal, in the experiment with COLO 205 colon, with SK-MEL-2 melanoma, with HOP-62 NSCLC, in the experiment on SR leukemia and in the experiment on MDA-MB-435 was greater than 100 µM in each case. Further, the TGI in the experiment with DU-145 prostate, in the experiment on MALME-3M melanoma, with UACC-62 melanoma and in the experiment with LOX IMVI melanoma was greater than 100 µM each time.
In the case of `c1ccc(Sc2nc(Sc3ccccc3)nc(Sc3ccccc3)n2)cc1`, the TGI is greater than 100 µM in the experiment with TK-10 renal; 38.7 µM in the experiment on COLO 205 colon; greater than 100 µM with SK-MEL-2 melanoma; greater than 100 µM in the experiment with HOP-62 NSCLC; greater than 100 µM in the experiment with SR leukemia; greater than 100 µM in the experiment on MDA-MB-435. Moreover, the TGI was 47.1 µM with DU-145 prostate, greater than 100 µM with MALME-3M melanoma, greater than 100 µM with UACC-62 melanoma and greater than 100 µM with LOX IMVI melanoma.
Regarding `COc1ccccc1[C@@H]1CCC2CC[C@@H](c3ccccc3OC)[N+]21Cc1ccccc1` (some centres undefined), the TGI came to 20.3 µM with TK-10 renal; 1.84 µM in the experiment with COLO 205 colon; 8.86 µM with SK-MEL-2 melanoma; 13.3 µM with HOP-62 NSCLC; 7.07 µM with SR leukemia; 10.5 µM with MDA-MB-435. The TGI turned out to be 13.7 µM in the experiment on DU-145 prostate, 15.3 µM in the experiment with MALME-3M melanoma and 13.2 µM in the experiment on LOX IMVI melanoma.
On to `Cc1sc2nc3n(c(=O)c2c1C)N=C(c1ccccc1)CS3`, for which the TGI in the experiment on TK-10 renal, in the experiment with COLO 205 colon, in the experiment with HOP-62 NSCLC, in the experiment with SR leukemia, with MDA-MB-435 and in the experiment on DU-145 prostate was greater than 100 µM in each case. For the same compound, the TGI with MALME-3M melanoma, in the experiment with UACC-62 melanoma and in the experiment on LOX IMVI melanoma was greater than 100 µM in each case.
